Tests used:
Thermal stability test = type: physicochemical
Procedure: The test compound was placed in a glass bottle and allowed to stand under the following conditions (1) and (2). After a certain period of time had elapsed, the residual rate of the active ingredient [compound (I)] in the test compound was measured by high performance liquid chromatography.
(1): Closed state, 60° C.;
(2): Non-closed state, 40° C., humidity 75%.
The measurement conditions in high performance liquid chromatography are as follows.
Column: L-column ODS [4.6 mm×250 mm, manufactured by Chemicals Evaluation and Research Institute, Japan]
Mobile layer: acetonitrile/22 mM potassium dihydrogenphosphate buffer/methanol=455/350/195 (V/V/V) (adjusted to pH 5.5 by phosphoric acid)
(§1) Column temperature: 40° C.
Detection wavelength: 220 nm
The residual rate (%) was calculated by the following formula.
The residual rate (%)=[1−(sum of peak area percentages of impurities and decomposed products)]×100

[1] = Absorbability test in dog; type: in vivo, dog (male beagle); settings: for Cmax / AUC(0-t): fasted male beagle, tetragastrin-treated, oral gelatin capsule 100 mg/body, plasma; for AUC(0-t): read-out: AUC0-24 h
Procedure: Tetragastrin (6 μg/kg) was intramuscularly injected to the posterior region of thigh of a fasted male beagle (body weight: about 10 kg, n=4) to make the intragastric pH acidic 30 minutes before, immediately before and 30 minutes after administration of the test compound. The test compound was encapsulated in gelatin capsules at a dose of 100 mg/body and orally administered. About 3 ml of blood was collected from the median antebrachial vein using a heparin-treated glass syringe 0.5, 1, 2, 3, 4, 6, 8 and 24 hours after the administration. The collected blood was centrifuged to obtain plasma which was cryopreserved at −20° C. until measurement of the concentration of the test compound. One hundred μl of thawed plasma was mixed with 100 μl of 50% methanol, 800 μl of purified water, 100 μl of 0.1 N aqueous hydrochloric acid and 100 μl of an internal standard solution [a solution of the d7-compound (I) in 50% methanol, 50 ng/ml]. The eluate obtained by solid phase extraction using OASIS HLB was evaporated to dryness and then dissolved in 400 μl of 75% methanol. The solution was analyzed by LC/MS/MS.
A calibration curve was prepared by the same operation as above using 100 μl of dog control plasma without drug administration and 100 μl of a calibration curve standard solution [a solution of the compound (I) in 50% methanol, 0.1-1000 ng/ml].
The LC/MS/MS analysis conditions are shown below.
System: API4000 LC/MS/MS System (manufactured by
Applied Biosystems/MDS SCIEX)
Ion source: TurboIonSpray
Turbo heater gas: Air, 650° C., 70 psi
Nebulizer gas: Air, 70 psi
Orifice voltage: Compound (I) 106 V • d7-Compound (I) 106 V
Ion spray voltage: 5500 V
Collision energy: Compound (I) 35 V • d7-Compound (I) 35 V
Measurement mode: Positive/MRM
Monitor ion: Compound (I) m/z 583->167 • d7-Compound (I) m/z 590->167
System: Agilent 1100 Series (manufactured by Agilent Technologies)
Column: Inertsil ODS-3 5 μm, 2.1 mm I.D.×150 mm (manufactured by GL Sciences)
Mobile phase: Methanol/water/difluoroacetic acid (700/300/0.75)
as §1
The area under the concentration in plasma-time curve (AUC0-24h) and the maximum concentration in plasma (Cmax) as pharmacokinetic parameters indicative of drug absorbability were calculated from the results obtained according to the aforementioned method using the compound of Example 1 and the compound (I) as test compounds.

[2] = Elution test (JP paddle method, pH 1.2); type: physicochemical; settings: for Elution rate: pH 1.2, 900 ml, paddle 250 rpm, 100 mg equivalent/capsule
Procedure: A test was carried out using one gelatin capsule filled with the test compound (100 mg equivalent/capsule) and 900 ml of the disintegration test first solution (The Japanese Pharmacopoeia Fourteenth Edition, pH 1.2) as a test solution according to the elution test second method (The Japanese Pharmacopoeia Fourteenth Edition, paddle method) at 250 revolutions per minute. A sinker (The Japanese Pharmacopoeia Fourteenth Edition elution test method) was used for preventing flotation of the gelatin capsule. Five, 10, 15, 20, 30, 45, 60, 75, 90, 105 and 120 minutes after the start of the elution test, about 20 ml of the test solution was filtered through a filter having a pore size of 10 μm (manufactured by VARIAN, Full Flow Filters 10 μm) and directly fed into a flow cell (optical path length: 0.5 cm) in a circulating system. The absorbance was measured by a photodiode array spectrophotometer (HP 8452A). The absorbance of the compound (I) in each test solution at the time of collection of the test solution was compared with the absorbance of the following standard solution to measure the concentration of the compound (I) in the test solution.
The standard solution was prepared as follows. About 28 mg of the compound (I) was precisely weighed and added to a 500 ml volumetric flask. Five ml of ethanol (99.5%, special grade reagent) was added to the flask and the compound (I) was dissolved while providing ultrasonic stimulation as necessary. The disintegration test first solution was added to make the volume exactly 500 ml. The resulting solution was provided as the standard solution.
The elution test system is shown below.
Elution test device: DT-600 (manufactured by JASCO)
Ultraviolet visible spectrophotometer: HP 8452A Diodearray UV-Visible Spectrophotometer (manufactured by Hewlett Packard; now Agilent Technologies)
Cell positioner: HP 89075C Multicell Transport (manufactured by Hewlett Packard)
Delivery pump: HP 89092A Multichannel Pump (manufactured by Hewlett Packard)
Elution test software: Hewlett Packard Dissolution Testing Software, Revision 03.01 (manufactured by Hewlett Packard)
Analysis wavelength: 254 to 258 nm
Control wavelength: 322 to 326 nm
Optical path length of quartz cell: 0.5 cm

[3] = Condition (1): closed state, 60° C., time 0 month
[4] = Condition (1): closed state, 60° C., time 1 month
[5] = Condition (1): closed state, 60° C., time 3 months
[6] = Condition (1): closed state, 60° C., time 6 months
[7] = Condition (2): non-closed state, 40° C., humidity 75%
[8] = Condition (2): non-closed state, 40° C., humidity 75%, time 0 month
[9] = Condition (2): non-closed state, 40° C., humidity 75%, time 1 month
[10] = Condition (2): non-closed state, 40° C., humidity 75%, time 3 months
[11] = Condition (2): non-closed state, 40° C., humidity 75%, time 6 months

Br.Br.CC1=C(C(=O)OC(C)C)C(c2cccc([N+](=O)[O-])c2)C(C(=O)OC2CN(C(c3ccccc3)c3ccccc3)C2)=C(N)N1 (single isomer, unassigned) [Example 1, 2-Amino-1,4-dihydro-6-methyl-4-(3-nitrophenyl)-3,5-pyridinedicarboxylic acid 3-(1-diphenylmethylazetidin-3-yl)ester 5-isopropyl ester dihydrobromide]
Residual rate of Compound (I) (Thermal stability test; [3]): 99.9% | Residual rate of Compound (I) (Thermal stability test; [4]): 99.7% | Residual rate of Compound (I) (Thermal stability test; [5]): 99.7% | Residual rate of Compound (I) (Thermal stability test; [6]): 99.6% | stability (in words) (Thermal stability test; [7]): excellent stability | Residual rate of Compound (I) (Thermal stability test; [8]): 99.9% | Residual rate of Compound (I) (Thermal stability test; [9]): 99.5% | Residual rate of Compound (I) (Thermal stability test; [10]): 99.1% | Residual rate of Compound (I) (Thermal stability test; [11]): 98.9% | Cmax [1]: 0.248 µg/mL | AUC(0-t) [1]: 2.93 µg·h/mL | bioavailability and concentration in blood (AUC0-24h and Cmax), in words ([1]; oral, compared with free compound (I)): superior to those of the free compound (I) | Elution rate ([2]; 5 min): 1.0% | Elution rate ([2]; 10 min): 1.9% | Elution rate ([2]; 15 min): 3.3% | Elution rate ([2]; 20 min): 5.0% | Elution rate ([2]; 30 min): 9.9% | Elution rate ([2]; 45 min): 23.5% | Elution rate ([2]; 60 min): 35.5% | Elution rate ([2]; 75 min): 40.8% | Elution rate ([2]; 90 min): 45.1% | Elution rate ([2]; 105 min): 49.6% | Elution rate ([2]; 120 min): 52.6% | elution properties (in words) ([2]; pH 1.2, compared with free compound (I)): superior to those of the free compound (I)

CC1=C(C(=O)OC(C)C)C(c2cccc([N+](=O)[O-])c2)C(C(=O)OC2CN(C(c3ccccc3)c3ccccc3)C2)=C(N)N1 (stereo not shown) [Compound (I), 2-Amino-1,4-dihydro-6-methyl-4-(3-nitrophenyl)-3,5-pyridinedicarboxylic acid 3-(1-diphenylmethylazetidin-3-yl) ester 5-isopropyl ester, reference compound]
Cmax [1]: 0.178 µg/mL | AUC(0-t) [1]: 1.81 µg·h/mL | Elution rate ([2]; 5 min): 0.5% | Elution rate ([2]; 10 min): 0.7% | Elution rate ([2]; 15 min): 1.0% | Elution rate ([2]; 20 min): 1.3% | Elution rate ([2]; 30 min): 1.8% | Elution rate ([2]; 45 min): 2.5% | Elution rate ([2]; 60 min): 3.1% | Elution rate ([2]; 75 min): 3.6% | Elution rate ([2]; 90 min): 4.1% | Elution rate ([2]; 105 min): 4.5% | Elution rate ([2]; 120 min): 5.0%

CC1=C(C(=O)OC(C)C)C(c2cccc([N+](=O)[O-])c2)C(C(=O)OC2CN(C(c3ccccc3)c3ccccc3)C2)=C(N)N1.CS(=O)(=O)O.CS(=O)(=O)O (stereo not shown) [Example 3, 2-Amino-1,4-dihydro-6-methyl-4-(3-nitrophenyl)-3,5-pyridinedicarboxylic acid 3-(1-diphenylmethylazetidin-3-yl)ester 5-isopropyl ester dimethanesulfonate]
Residual rate of Compound (I) (Thermal stability test; [3]): 99.6% | Residual rate of Compound (I) (Thermal stability test; [4]): 98.7% | Residual rate of Compound (I) (Thermal stability test; [5]): 98.5%

CC1=C(C(=O)OC(C)C)C(c2cccc([N+](=O)[O-])c2)C(C(=O)OC2CN(C(c3ccccc3)c3ccccc3)C2)=C(N)N1.CS(=O)(=O)O.CS(=O)(=O)O.CS(=O)(=O)O (stereo not shown) [Example 4, 2-Amino-1,4-dihydro-6-methyl-4-(3-nitrophenyl)-3,5-pyridinedicarboxylic acid 3-(1-diphenylmethylazetidin-3-yl)ester 5-isopropyl ester trimethanesulfonate]
Residual rate of Compound (I) (Thermal stability test; [3]): 99.5% | Residual rate of Compound (I) (Thermal stability test; [4]): 98.6% | Residual rate of Compound (I) (Thermal stability test; [5]): 98.1% | stability (in words) (Thermal stability test; [7]): excellent stability | Residual rate of Compound (I) (Thermal stability test; [8]): 99.5% | Residual rate of Compound (I) (Thermal stability test; [9]): 99.1% | Residual rate of Compound (I) (Thermal stability test; [10]): 98.8%

CC1=C(C(=O)OC(C)C)C(c2cccc([N+](=O)[O-])c2)C(C(=O)OC2CN(C(c3ccccc3)c3ccccc3)C2)=C(N)N1.O=S(=O)(O)c1ccccc1.O=S(=O)(O)c1ccccc1 (stereo not shown) [Example 5, 2-Amino-1,4-dihydro-6-methyl-4-(3-nitrophenyl)-3,5-pyridinedicarboxylic acid 3-(1-diphenylmethylazetidin-3-yl)ester 5-isopropyl ester dibenzenesulfonate]
stability (in words) (Thermal stability test; Condition (1): closed state, 60° C.): equal in stability | Residual rate of Compound (I) (Thermal stability test; [3]): 99.7% | Residual rate of Compound (I) (Thermal stability test; [4]): 98.6% | Residual rate of Compound (I) (Thermal stability test; [5]): 96.5% | Residual rate of Compound (I) (Thermal stability test; [6]): 93.3%

CC1=C(C(=O)OC(C)C)C(c2cccc([N+](=O)[O-])c2)C(C(=O)OC2CN(C(c3ccccc3)c3ccccc3)C2)=C(N)N1.Cc1ccc(S(=O)(=O)O)cc1.Cc1ccc(S(=O)(=O)O)cc1 (stereo not shown) [Example 6, 2-Amino-1,4-dihydro-6-methyl-4-(3-nitrophenyl)-3,5-pyridinedicarboxylic acid 3-(1-diphenylmethylazetidin-3-yl)ester 5-isopropyl ester di-p-toluenesulfonate]
Residual rate of Compound (I) (Thermal stability test; [3]): 99.6% | Residual rate of Compound (I) (Thermal stability test; [4]): 98.8% | Residual rate of Compound (I) (Thermal stability test; [5]): 98.3% | Residual rate of Compound (I) (Thermal stability test; [6]): 97.3% | stability (in words) (Thermal stability test; [7]): excellent stability | Residual rate of Compound (I) (Thermal stability test; [8]): 99.6% | Residual rate of Compound (I) (Thermal stability test; [9]): 97.5% | Residual rate of Compound (I) (Thermal stability test; [10]): 96.4% | Residual rate of Compound (I) (Thermal stability test; [11]): 94.5%
